Assay results taken from patent US20210338846A1, “COMPETITIVE PROSTATE-SPECIFIC MEMBRANE ANTIGEN (PSMA) BINDING AGENTS FOR REDUCTION OF NON-TARGET ORGAN UPTAKE OF RADIOLABELED PSMA INHIBITORS FOR PSMA POSITIVE TUMOR IMAGING AND RADIOPHARMACEUTICAL THERAPY” (The Johns Hopkins University, priority 2018, published 2021).
“And” between values parts separate entries of the source, which are not always exact repeats. Equal values may be shown once. Read-outs that look alike come from different tables or passages of the source.

Legend:
[1] = system: PSMA+ PC-3 PiP and PSMA− PC-3 flu tumors; assay type: in vivo
[2] = system: PSMA+ PC-3 PiP and PSMA− PC-3 flu tumors
[3] = 2 Hour (head; title: One-Hour), No CI
[4] = 2 Hour (head; title: One-Hour), co-injection 0.5 nmole VK-02-90
[5] = 2 Hour (head; title: One-Hour), co-injection 1.0 nmole VK-02-90
[6] = 2 Hour (head; title: One-Hour), co-injection 5.0 nmole VK-02-90
[7] = 4 Hour, co-injection 0.5 nmole VK-02-90
[8] = 4 Hour, co-injection 1.0 nmole VK-02-90
[9] = 4 Hour, co-injection 5.0 nmole VK-02-90
[10] = 1 h, co-injection 0.5 nmole YC-I-27
[11] = 1 h, co-injection 1.0 nmole YC-I-27
[12] = 1 h, co-injection 5.0 nmole YC-I-27
[13] = 4 h, co-injection 0.5 nmole YC-I-27
[14] = 4 h, co-injection 1.0 nmole YC-I-27
[15] = 4 h, co-injection 5.0 nmole YC-I-27
[16] = 24 h, co-injection 0.5 nmole YC-I-27

O=C([O-])CN1CCN(CC(=O)[O-])CCN(CC(=O)NCCCCC(=O)N(CCCC[C@H](NC(=O)N[C@@H](CCC(=O)O)C(=O)O)C(=O)O)Cc2ccc([125I])cc2)CCN(CC(=O)[O-])CC1.[Lu+3] [[^125I]VK-02-90-Lu]
Biodistribution: Blood [1, 3]: 1.1 ± 0.1 % injected dose/gram | Biodistribution: Flu tumor [1, 3]: 1.0 ± 0.2 % injected dose/gram | Biodistribution: Lacrimal gland [1, 3]: 2.1 ± 0.9 % injected dose/gram | Biodistribution: PiP tumor [1, 3]: 26 ± 3 % injected dose/gram | Biodistribution: Salivary gland [1, 3]: 2.3 ± 0.5 % injected dose/gram | Biodistribution: kidneys [1, 3]: 129 ± 15 % injected dose/gram | Biodistribution: spleen [1, 3]: 4.3 ± 0.9 % injected dose/gram | Biodistribution: stomach [1, 3]: 1.7 ± 0.3 % injected dose/gram | Biodistribution: Blood [1, 4]: 0.4 ± 0.1 % injected dose/gram | Biodistribution: Flu tumor [1, 4]: 0.6 ± 0.3 % injected dose/gram | Biodistribution: Lacrimal gland [1, 4]: 0.4 ± 0.1 % injected dose/gram | Biodistribution: PiP tumor [1, 4]: 37 ± 7 % injected dose/gram | Biodistribution: Salivary gland [1, 4]: 0.2 ± 0.03 % injected dose/gram | Biodistribution: kidneys [1, 4]: 10 ± 2.5 % injected dose/gram | Biodistribution: spleen [1, 4]: 1.1 ± 0.4 % injected dose/gram | Biodistribution: stomach [1, 4]: 0.2 ± 0.1 % injected dose/gram | Biodistribution: Blood [1, 5]: 0.4 ± 0.1 % injected dose/gram | Biodistribution: Flu tumor [1, 5]: 0.5 ± 0.1 % injected dose/gram | Biodistribution: Lacrimal gland [1, 5]: 0.4 ± 0.1 % injected dose/gram | Biodistribution: PiP tumor [1, 5]: 35 ± 9 % injected dose/gram | Biodistribution: Salivary gland [1, 5]: 0.2 ± 0.06 % injected dose/gram | Biodistribution: kidneys [1, 5]: 6.5 ± 0.9 % injected dose/gram | Biodistribution: spleen [1, 5]: 1.1 ± 0.4 % injected dose/gram | Biodistribution: stomach [1, 5]: 0.2 ± 0.04 % injected dose/gram | Biodistribution: Blood [1, 6]: 0.5 ± 0.1 % injected dose/gram | Biodistribution: Flu tumor [1, 6]: 0.9 ± 0.3 % injected dose/gram | Biodistribution: Lacrimal gland [1, 6]: 0.4 ± 0.03 % injected dose/gram | Biodistribution: PiP tumor [1, 6]: 24 ± 4 % injected dose/gram | Biodistribution: Salivary gland [1, 6]: 0.3 ± 0.1 % injected dose/gram | Biodistribution: kidneys [1, 6]: 4.2 ± 0.5 % injected dose/gram | Biodistribution: spleen [1, 6]: 0.7 ± 0.2 % injected dose/gram | Biodistribution: stomach [1, 6]: 0.2 ± 0.06 % injected dose/gram | Biodistribution: Blood ([1]; 4 Hour, No CI): 0.3 ± 0.2 % injected dose/gram | Biodistribution: Flu tumor ([1]; 4 Hour, No CI): 0.2 ± 0.1 % injected dose/gram | Biodistribution: Lacrimal gland ([1]; 4 Hour, No CI): 0.4 ± 0.2 % injected dose/gram | Biodistribution: PiP tumor ([1]; 4 Hour, No CI): 27 ± 8 % injected dose/gram | Biodistribution: Salivary gland ([1]; 4 Hour, No CI): 1.8 ± 0.2 % injected dose/gram | Biodistribution: kidneys ([1]; 4 Hour, No CI): 10 ± 2.5 % injected dose/gram | Biodistribution: spleen ([1]; 4 Hour, No CI): 0.6 ± 0.2 % injected dose/gram | Biodistribution: stomach ([1]; 4 Hour, No CI): 0.8 ± 0.5 % injected dose/gram | Biodistribution: Blood [1, 7]: 0.02 ± 0.01 % injected dose/gram | Biodistribution: Flu tumor [1, 7]: 0.1 ± 0.02 % injected dose/gram | Biodistribution: Lacrimal gland [1, 7]: 0.1 ± 0.03 % injected dose/gram | Biodistribution: PiP tumor [1, 7]: 25 ± 2 % injected dose/gram | Biodistribution: Salivary gland [1, 7]: 0.08 ± 0.04 % injected dose/gram | Biodistribution: kidneys [1, 7]: 2.1 ± 0.7 % injected dose/gram | Biodistribution: spleen [1, 7]: 0.2 ± 0.1 % injected dose/gram | Biodistribution: stomach [1, 7]: 0.06 ± 0.01 % injected dose/gram | Biodistribution: Blood [1, 8]: 0.2 ± 0.01 % injected dose/gram | Biodistribution: Flu tumor [1, 8]: 0.1 ± 0.03 % injected dose/gram | Biodistribution: Lacrimal gland [1, 8]: 0.1 ± 0.05 % injected dose/gram | Biodistribution: PiP tumor [1, 8]: 27 ± 4 % injected dose/gram | Biodistribution: Salivary gland [1, 8]: 0.1 ± 0.02 % injected dose/gram | Biodistribution: kidneys [1, 8]: 1.4 ± 0.4 % injected dose/gram | Biodistribution: spleen [1, 8]: 0.2 ± 0.1 % injected dose/gram | Biodistribution: stomach [1, 8]: 0.1 ± 0.03 % injected dose/gram | Biodistribution: Blood [1, 9]: 0 % injected dose/gram | Biodistribution: Flu tumor [1, 9]: 0.1 ± 0.01 % injected dose/gram | Biodistribution: Lacrimal gland [1, 9]: 0.1 ± 0.1 % injected dose/gram | Biodistribution: PiP tumor [1, 9]: 19 ± 2 % injected dose/gram | Biodistribution: Salivary gland [1, 9]: 0.05 ± 0.02 % injected dose/gram | Biodistribution: kidneys [1, 9]: 0.9 ± 0.3 % injected dose/gram | Biodistribution: spleen [1, 9]: 0.15 ± 0.08 % injected dose/gram | Biodistribution: stomach [1, 9]: 0.1 ± 0.04 % injected dose/gram | Biodistribution: Blood ([2]; 1 h, No CI): 1.1 ± 0.1 % injected dose/gram | Biodistribution: Flu tumor ([2]; 1 h, No CI): 1.0 ± 0.2 % injected dose/gram | Biodistribution: Lacrimal gland ([2]; 1 h, No CI): 2.1 ± 0.9 % injected dose/gram | Biodistribution: PiP tumor ([2]; 1 h, No CI): 26 ± 3 % injected dose/gram | Biodistribution: Salivary gland ([2]; 1 h, No CI): 2.3 ± 0.5 % injected dose/gram | Biodistribution: kidneys ([2]; 1 h, No CI): 129 ± 15 % injected dose/gram | Biodistribution: spleen ([2]; 1 h, No CI): 4.3 ± 0.9 % injected dose/gram | Biodistribution: stomach ([2]; 1 h, No CI): 1.7 ± 0.3 % injected dose/gram | Biodistribution: Blood [2, 10]: 1.1 ± 0.1 % injected dose/gram | Biodistribution: Flu tumor [2, 10]: 1.0 ± 0.3 % injected dose/gram | Biodistribution: Lacrimal gland [2, 10]: 0.5 ± 0.1 % injected dose/gram | Biodistribution: PiP tumor [2, 10]: 42 ± 4 % injected dose/gram and 42 ± 4.2 % injected dose/gram | Biodistribution: Salivary gland [2, 10]: 3.2 ± 0.7 % injected dose/gram | Biodistribution: kidneys [2, 10]: 4.2 ± 1.3 % injected dose/gram | Biodistribution: spleen [2, 10]: 0.8 ± 0.2 % injected dose/gram | Biodistribution: stomach [2, 10]: 1.8 ± 0.2 % injected dose/gram | Biodistribution: Blood [2, 11]: 1.0 ± 0.1 % injected dose/gram | Biodistribution: Flu tumor [2, 11]: 0.8 ± 0.2 % injected dose/gram | Biodistribution: Lacrimal gland [2, 11]: 0.6 ± 0.05 % injected dose/gram | Biodistribution: PiP tumor [2, 11]: 29 ± 2 % injected dose/gram | Biodistribution: Salivary gland [2, 11]: 2.9 ± 0.4 % injected dose/gram | Biodistribution: kidneys [2, 11]: 2.4 ± 0.8 % injected dose/gram | Biodistribution: spleen [2, 11]: 0.6 ± 0.1 % injected dose/gram | Biodistribution: stomach [2, 11]: 1.8 ± 0.3 % injected dose/gram | Biodistribution: Blood [2, 12]: 1.1 ± 0.2 % injected dose/gram | Biodistribution: Flu tumor [2, 12]: 0.8 ± 0.2 % injected dose/gram | Biodistribution: Lacrimal gland [2, 12]: 1.1 ± 0.6 % injected dose/gram | Biodistribution: PiP tumor [2, 12]: 20 ± 3 % injected dose/gram | Biodistribution: Salivary gland [2, 12]: 5.1 ± 1.7 % injected dose/gram | Biodistribution: kidneys [2, 12]: 2.3 ± 0.7 % injected dose/gram | Biodistribution: spleen [2, 12]: 0.7 ± 0.1 % injected dose/gram | Biodistribution: stomach [2, 12]: 2.2 ± 0.7 % injected dose/gram | Biodistribution: Blood ([2]; 4 h, No CI): 0.3 ± 0.2 % injected dose/gram | Biodistribution: Flu tumor ([2]; 4 h, No CI): 0.2 ± 0.1 % injected dose/gram and 0.25 ± 0.1 % injected dose/gram | Biodistribution: Lacrimal gland ([2]; 4 h, No CI): 0.4 ± 0.2 % injected dose/gram | Biodistribution: PiP tumor ([2]; 4 h, No CI): 27 ± 7 % injected dose/gram and 27 ± 8 % injected dose/gram | Biodistribution: Salivary gland ([2]; 4 h, No CI): 1.8 ± 0.2 % injected dose/gram | Biodistribution: kidneys ([2]; 4 h, No CI): 9.5 ± 2.5 % injected dose/gram and 10 ± 2.5 % injected dose/gram | Biodistribution: spleen ([2]; 4 h, No CI): 0.6 ± 0.2 % injected dose/gram | Biodistribution: stomach ([2]; 4 h, No CI): 0.8 ± 0.5 % injected dose/gram | Biodistribution: Blood [2, 13]: 0.4 ± 0.06 % injected dose/gram | Biodistribution: Flu tumor [2, 13]: 0.3 ± 0.1 % injected dose/gram | Biodistribution: Lacrimal gland [2, 13]: 0.2 ± 0.02 % injected dose/gram and 0.4 ± 0.02 % injected dose/gram | Biodistribution: PiP tumor [2, 13]: 24 ± 3 % injected dose/gram | Biodistribution: Salivary gland [2, 13]: 3.3 ± 0.8 % injected dose/gram | Biodistribution: kidneys [2, 13]: 0.9 ± 0.1 % injected dose/gram | Biodistribution: spleen [2, 13]: 0.25 ± 0.07 % injected dose/gram | Biodistribution: stomach [2, 13]: 1.3 ± 0.2 % injected dose/gram | Biodistribution: Blood [2, 14]: 0.4 ± 0.05 % injected dose/gram | Biodistribution: Flu tumor [2, 14]: 0.3 ± 0.1 % injected dose/gram | Biodistribution: Lacrimal gland [2, 14]: 0.2 ± 0.03 % injected dose/gram | Biodistribution: PiP tumor [2, 14]: 24 ± 1 % injected dose/gram | Biodistribution: Salivary gland [2, 14]: 3.2 ± 0.7 % injected dose/gram | Biodistribution: kidneys [2, 14]: 0.6 ± 0.03 % injected dose/gram | Biodistribution: spleen [2, 14]: 0.2 ± 0.04 % injected dose/gram | Biodistribution: stomach [2, 14]: 1.2 ± 0.2 % injected dose/gram | Biodistribution: Blood [2, 15]: 0.4 ± 0.1 % injected dose/gram | Biodistribution: Flu tumor [2, 15]: 0.3 ± 0.1 % injected dose/gram | Biodistribution: Lacrimal gland [2, 15]: 0.5 ± 0.5 % injected dose/gram | Biodistribution: PiP tumor [2, 15]: 14 ± 5 % injected dose/gram | Biodistribution: Salivary gland [2, 15]: 5.0 ± 1.4 % injected dose/gram | Biodistribution: kidneys [2, 15]: 0.7 ± 0.1 % injected dose/gram | Biodistribution: spleen [2, 15]: 0.3 ± 0.06 % injected dose/gram | Biodistribution: stomach [2, 15]: 1.6 ± 0.4 % injected dose/gram | Biodistribution: Blood ([2]; 24 h, No CI): 0.01 ± 0.01 % injected dose/gram | Biodistribution: Flu tumor ([2]; 24 h, No CI): 0.05 ± 0.01 % injected dose/gram | Biodistribution: Lacrimal gland ([2]; 24 h, No CI): 0.05 ± 0.04 % injected dose/gram | Biodistribution: PiP tumor ([2]; 24 h, No CI): 18 ± 6 % injected dose/gram | Biodistribution: Salivary gland ([2]; 24 h, No CI): 0.02 ± 0.08 % injected dose/gram | Biodistribution: kidneys ([2]; 24 h, No CI): 1.3 ± 0.7 % injected dose/gram | Biodistribution: spleen ([2]; 24 h, No CI): 0.1 ± 0.05 % injected dose/gram | Biodistribution: stomach ([2]; 24 h, No CI): 0.01 ± 0.04 % injected dose/gram | Biodistribution: Blood [2, 16]: 0.1 ± 0.01 % injected dose/gram | Biodistribution: Flu tumor [2, 16]: 0.04 ± 0.01 % injected dose/gram | Biodistribution: Lacrimal gland [2, 16]: 0.03 ± 0.02 % injected dose/gram | Biodistribution: PiP tumor [2, 16]: 16 ± 4 % injected dose/gram | Biodistribution: Salivary gland [2, 16]: 0.02 ± 0.01 % injected dose/gram | Biodistribution: kidneys [2, 16]: 0.5 ± 0.2 % injected dose/gram | Biodistribution: spleen [2, 16]: 0.04 ± 0.01 % injected dose/gram | Biodistribution: stomach [2, 16]: 0.04 ± 0.04 % injected dose/gram
